In paper PMC10015785, “A proteasomal β5 subunit of Haemonchus contortus with a role in the growth, development and life span” (Parasites & Vectors, 2023):

Biological target: T1, proteasomal β5 subunit (Hc-PBS-5) (Haemonchus contortus, UniProt A0A7I5E5W5)
T1 sequence (A0A7I5E5W5 65-284): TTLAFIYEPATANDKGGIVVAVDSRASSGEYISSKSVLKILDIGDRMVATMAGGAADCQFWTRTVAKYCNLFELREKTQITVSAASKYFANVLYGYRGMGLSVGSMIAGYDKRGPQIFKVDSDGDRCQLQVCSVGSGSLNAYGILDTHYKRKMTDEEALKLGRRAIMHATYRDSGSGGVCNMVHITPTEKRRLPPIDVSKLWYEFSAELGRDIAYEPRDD
Format: biochemical

IC50: 622 nM
Structure (SMILES): CC(C)C[C@H](NC(=O)[C@H](Cc1ccccc1)NC(=O)c1cnccn1)B(O)O [bortezomib]
